Columns and labels:
[1] = target: T1, Proto-oncogene tyrosine-protein kinase receptor Ret (Homo sapiens, UniProt P07949); experiment: Inhibition of GST-tagged wild type RET (unknown origin) expressed in Sf9 cells
[2] = target: T2, Proto-oncogene tyrosine-protein kinase receptor Ret (Homo sapiens, UniProt P07949, V804M); experiment: Inhibition of RET V804M mutant (unknown origin) expressed in Sf9 cells by enzymatic assay
[3] = target: Proto-oncogene tyrosine-protein kinase receptor Ret (Homo sapiens, UniProt P07949, G810A); experiment: Inhibition of RET G810A mutant (unknown origin)
[4] = target: Proto-oncogene tyrosine-protein kinase receptor Ret (Homo sapiens, UniProt P07949, G810D); experiment: Inhibition of RET G810D mutant (unknown origin)
[5] = target: Proto-oncogene tyrosine-protein kinase receptor Ret (Homo sapiens, UniProt P07949, G810S); experiment: Inhibition of RET G810S mutant (unknown origin)
[6] = target: Proto-oncogene tyrosine-protein kinase receptor Ret (Homo sapiens, UniProt P07949, G810V); experiment: Inhibition of RET G810V mutant (unknown origin)
Sequence of Proto-oncogene tyrosine-protein kinase receptor Ret (Homo sapiens, UniProt P07949, G810V) (P07949 29-1114 G810V limits assumed): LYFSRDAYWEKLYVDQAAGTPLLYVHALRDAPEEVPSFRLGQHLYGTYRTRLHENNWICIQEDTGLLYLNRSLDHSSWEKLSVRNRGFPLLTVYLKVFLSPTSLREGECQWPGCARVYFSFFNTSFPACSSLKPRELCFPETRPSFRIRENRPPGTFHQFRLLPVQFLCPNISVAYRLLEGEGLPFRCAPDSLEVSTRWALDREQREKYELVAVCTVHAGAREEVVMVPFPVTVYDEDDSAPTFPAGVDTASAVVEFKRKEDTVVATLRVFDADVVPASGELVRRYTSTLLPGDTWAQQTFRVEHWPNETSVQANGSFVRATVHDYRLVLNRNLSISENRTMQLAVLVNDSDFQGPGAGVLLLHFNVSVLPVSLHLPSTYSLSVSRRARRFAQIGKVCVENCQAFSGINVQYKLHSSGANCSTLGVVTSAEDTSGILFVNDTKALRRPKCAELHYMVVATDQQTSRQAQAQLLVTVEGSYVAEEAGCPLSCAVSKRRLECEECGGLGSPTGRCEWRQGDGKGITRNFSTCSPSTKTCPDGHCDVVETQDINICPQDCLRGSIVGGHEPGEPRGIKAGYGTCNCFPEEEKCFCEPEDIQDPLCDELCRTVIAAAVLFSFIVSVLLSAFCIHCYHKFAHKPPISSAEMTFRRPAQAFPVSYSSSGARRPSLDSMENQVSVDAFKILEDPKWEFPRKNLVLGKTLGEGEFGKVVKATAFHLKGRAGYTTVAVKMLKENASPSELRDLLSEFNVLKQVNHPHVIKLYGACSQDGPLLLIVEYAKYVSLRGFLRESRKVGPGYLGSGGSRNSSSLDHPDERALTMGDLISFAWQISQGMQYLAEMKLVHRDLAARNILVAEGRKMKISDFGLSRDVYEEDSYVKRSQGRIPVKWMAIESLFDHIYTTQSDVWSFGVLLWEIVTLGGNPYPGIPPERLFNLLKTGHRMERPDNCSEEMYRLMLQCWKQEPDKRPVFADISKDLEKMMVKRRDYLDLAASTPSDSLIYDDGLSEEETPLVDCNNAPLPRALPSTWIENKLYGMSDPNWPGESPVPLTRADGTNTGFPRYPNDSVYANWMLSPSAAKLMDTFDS

[7] = target: Proto-oncogene tyrosine-protein kinase receptor Ret (Homo sapiens, UniProt P07949, G810C); experiment: Inhibition of RET G810C mutant (unknown origin)
[8] = target: Proto-oncogene tyrosine-protein kinase receptor Ret (Homo sapiens, UniProt P07949, G810R); experiment: Inhibition of RET G810R mutant (unknown origin)
[9] = target: ALK tyrosine kinase receptor (Homo sapiens, UniProt Q9UM73); experiment: Inhibition of wild type ALK (unknown origin) by enzymatic assay
[10] = target: T1, Proto-oncogene tyrosine-protein kinase receptor Ret; experiment: Inhibition of wild type His-tagged human RET by ADP-Glo assay
[11] = target: Proto-oncogene tyrosine-protein kinase receptor Ret (Homo sapiens, UniProt P07949, V804L); experiment: Inhibition of RET V804L mutant (unknown origin)
[12] = Inhibition of CCDC6-RET (unknown origin)
[13] = system: Proto-oncogene tyrosine-protein kinase receptor Ret (Homo sapiens), P07949 [V804L]; experiment: Inhibition of RET V804L mutant (unknown origin) at 4 nM relative to control
Sequence of Proto-oncogene tyrosine-protein kinase receptor Ret (Homo sapiens), P07949 [V804L] (P07949 whole entry V804L): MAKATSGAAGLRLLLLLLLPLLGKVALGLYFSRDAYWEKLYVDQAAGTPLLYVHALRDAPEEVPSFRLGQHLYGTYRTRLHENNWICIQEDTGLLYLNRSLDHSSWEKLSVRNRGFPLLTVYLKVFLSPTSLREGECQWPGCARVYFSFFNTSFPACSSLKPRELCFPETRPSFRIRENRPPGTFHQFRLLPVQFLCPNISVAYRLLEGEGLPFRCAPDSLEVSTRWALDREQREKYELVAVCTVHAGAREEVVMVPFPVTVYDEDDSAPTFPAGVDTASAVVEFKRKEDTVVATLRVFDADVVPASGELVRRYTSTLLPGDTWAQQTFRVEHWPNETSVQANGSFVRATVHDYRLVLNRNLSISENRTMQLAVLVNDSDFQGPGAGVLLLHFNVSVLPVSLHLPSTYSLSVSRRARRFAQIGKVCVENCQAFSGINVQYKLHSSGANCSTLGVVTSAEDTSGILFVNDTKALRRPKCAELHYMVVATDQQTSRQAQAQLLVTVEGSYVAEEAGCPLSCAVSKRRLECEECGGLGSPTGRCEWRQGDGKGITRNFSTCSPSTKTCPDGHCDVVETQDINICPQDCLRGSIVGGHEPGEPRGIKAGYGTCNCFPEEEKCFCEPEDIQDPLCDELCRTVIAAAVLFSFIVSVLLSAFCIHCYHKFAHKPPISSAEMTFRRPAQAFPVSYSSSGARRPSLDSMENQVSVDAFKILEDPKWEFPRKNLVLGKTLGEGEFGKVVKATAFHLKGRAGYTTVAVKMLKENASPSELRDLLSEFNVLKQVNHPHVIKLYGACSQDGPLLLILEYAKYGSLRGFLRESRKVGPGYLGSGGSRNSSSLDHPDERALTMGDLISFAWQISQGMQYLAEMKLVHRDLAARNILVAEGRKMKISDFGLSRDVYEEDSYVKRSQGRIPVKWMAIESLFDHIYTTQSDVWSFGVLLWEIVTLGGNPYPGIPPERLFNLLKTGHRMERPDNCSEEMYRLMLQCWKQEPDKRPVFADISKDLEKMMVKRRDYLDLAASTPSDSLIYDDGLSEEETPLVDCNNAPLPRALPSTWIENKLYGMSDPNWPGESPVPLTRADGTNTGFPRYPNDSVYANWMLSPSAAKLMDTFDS

[14] = system: Proto-oncogene tyrosine-protein kinase receptor Ret (Homo sapiens), P07949 [S904F]; experiment: Inhibition of RET S904F mutant (unknown origin) at 1 nM relative to control
[15] = system: Proto-oncogene tyrosine-protein kinase receptor Ret (Homo sapiens), P07949 [V804L]; experiment: Inhibition of RET V804L mutant (unknown origin) at 4 nM by enzymatic assay relative to control
[16] = Antiproliferative activity against human LC2 cells assessed as reduction in cell growth measured for 48 hrs by MTT assay; assay type: functional, cell-based; conditions: LC2, 48 h
[17] = target: Coiled-coil domain-containing protein 6/Tyrosine-protein kinase receptor RET (Homo sapiens, UniProt P07949); experiment: Inhibition of CCDC6-RET (unknown origin); assay type: protein assay
[18] = target: T1, Proto-oncogene tyrosine-protein kinase receptor Ret; experiment: Inhibition of full length His-tagged human recombinant RET expressed in baculovirus infected Sf9 cells
[19] = target: Vascular endothelial growth factor receptor 2 (Homo sapiens, UniProt P35968); experiment: Inhibition of wild type VEGFR2 (unknown origin) expressed in baculovirus infected insect cells using biotinylated-GGGGQDGKDYIVLPI peptide as substrate incubated for 1 to 4 hrs by TRF assay; design: species or system Insect cell
[20] = target: T2, Proto-oncogene tyrosine-protein kinase receptor Ret; experiment: Inhibition of RET V804M mutant (unknown origin) by KINOMEscan assay
[21] = target: T1, Proto-oncogene tyrosine-protein kinase receptor Ret; experiment: Inhibition of wild type human RET by KINOMEscan assay

T1 sequence (P07949 whole entry): as the sequence (P07949 whole entry V804L) above, with L804V counted along it
T2 sequence (P07949 29-1114 V804M limits assumed): as the sequence (P07949 29-1114 G810V limits assumed) above, with V776M, V782G counted along it

Compound: Cc1nc2cnc(N)c(C#Cc3cncc(C(=O)Nc4ccc(CN5CCN(C)CC5)c(C(F)(F)F)c4)c3)c2nc1C
- IC50 [1]: 1.76 nM
- IC50 [2]: 15.1 nM
- IC50 [3]: 1.88 nM
- IC50 [4]: 7.98 nM
- IC50 [5]: 10.1 nM
- IC50 [6]: 3.6 nM
- IC50 [7]: 11.6 nM
- IC50 [8]: 18 nM

Compound: CCc1cc2c(cc1-c1ccn(CCCN(C)C)n1)C(C)(C)c1[nH]c3cc(C#N)ccc3c1C2=O
- IC50 [9]: 0.1 nM
- IC50 [10]: 2 nM
- IC50 [11]: 9 nM

Compound: CC1(C)c2cc(C3CCN(CC4CCOCC4)CC3)ccc2C(=O)c2c1[nH]c1cc(C#N)ccc21
- IC50 [12]: 43.6 nM

Compound: Cc1ccc(C(=O)Nc2ccc(CN3CCN(C)CC3)c(C(F)(F)F)c2)cc1C#Cc1cnc(N)c2ncccc12
- inhibition [13]: 40%

Compound: CN1CCN(Cc2ccc(NC(=O)c3cncc(C#Cc4cnc(N)c5ncccc45)c3)cc2C(F)(F)F)CC1
- inhibition [14]: 60%
- inhibition [15]: 98%
- IC50 [16]: 3 nM
- IC50 [17]: 3 nM
- IC50 [18]: 3.16 nM

Compound: Cn1cc(-c2ccc3c(c2)ncn3-c2ccc(CC(=O)Nc3cc(C(C)(C)C)on3)cc2)cn1
- IC50 [19]: < 1 nM
- IC50 [20]: < 1 nM
- IC50 [21]: < 1 nM

Reference: ChEMBL document CHEMBL5528086, “Unraveling the Promise of RET Inhibitors in Precision Cancer Therapy by Targeting RET Mutations” (J Med Chem, 2024)
